Article PMC10300026, “Discovery of an OTUD3 inhibitor for the treatment of non-small cell lung cancer” (Cell Death & Disease, 2023)
pKd: −log10 of the molar value.

Target: T1, OTUD3 (Homo sapiens, UniProt Q5T2D3)
T1 construct: OTUD3 OTU (aa 52-209)
T1 sequence (Q5T2D3 52-209): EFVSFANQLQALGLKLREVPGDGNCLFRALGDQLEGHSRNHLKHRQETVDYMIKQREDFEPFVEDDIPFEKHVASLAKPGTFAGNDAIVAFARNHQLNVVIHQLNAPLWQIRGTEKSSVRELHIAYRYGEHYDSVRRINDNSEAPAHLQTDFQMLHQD
Assay: SPR (Biacore T200, CM5 chip); supported by in vitro K48/K63 di-ubiquitin cleavage inhibition
Format: binding

**Q.** With `O=C(Nc1cccc(-c2nc3ccccc3[nH]2)c1)c1ccc(S(=O)(=O)N2CCc3ccccc3C2)cc1` [compound 16, 4-[dioxo(1,2,3,4-tetrahydroisoquinolin-2-yl)-λ6-sulfanyl]-N-[3-(1H-benzo[d]imidazol-2-yl)phenyl]benzamide] as the molecule, how does the pKd read?
**A.** Its pKd is 6.49.
